Bounds are passed on as bounds.

For data set [1] the following is noted: pharmacokinetics described for (−) mesembrine; species not given; cited from earlier work.
Data set [2] addresses T1, SERT (Homo sapiens, UniProt P31645).
T1 construct: expressed in transfected cells
Briefly: SERT inhibition assay (Neurotransmitter Transportation Fluorescence assay, stable 5HTT cells). It is filed as cell-based. The following applies: for IC50 ratio to (−) mesembrine: SERT assay IC50 relative to (−) mesembrine; for IC50: stable 5HTT cells, 30 minutes at 37° C., fluorescence uptake kit, read-out: SERT Assay Potency Range. As to the method:
SERT inhibition can be measured using a Neruotransmitter Transportation Fluorescence assay. Briefly, stable 5HTT cells were prepared in a 384 microwell plate. Compounds were prepared by in assay buffer (20 mM HEPES, 0.1% BSA). The compounds were added to the plated cells and incubated for 30 minutes at 37° C. 25 μL of dye solution (Molecular Devices Neurotransmitter Transporter Uptake Assay Kit) is added per well and incubated for 30 minutes at 37° C. The plates are then read on a plate reader.

T1 sequence (P31645 whole entry, species assumed): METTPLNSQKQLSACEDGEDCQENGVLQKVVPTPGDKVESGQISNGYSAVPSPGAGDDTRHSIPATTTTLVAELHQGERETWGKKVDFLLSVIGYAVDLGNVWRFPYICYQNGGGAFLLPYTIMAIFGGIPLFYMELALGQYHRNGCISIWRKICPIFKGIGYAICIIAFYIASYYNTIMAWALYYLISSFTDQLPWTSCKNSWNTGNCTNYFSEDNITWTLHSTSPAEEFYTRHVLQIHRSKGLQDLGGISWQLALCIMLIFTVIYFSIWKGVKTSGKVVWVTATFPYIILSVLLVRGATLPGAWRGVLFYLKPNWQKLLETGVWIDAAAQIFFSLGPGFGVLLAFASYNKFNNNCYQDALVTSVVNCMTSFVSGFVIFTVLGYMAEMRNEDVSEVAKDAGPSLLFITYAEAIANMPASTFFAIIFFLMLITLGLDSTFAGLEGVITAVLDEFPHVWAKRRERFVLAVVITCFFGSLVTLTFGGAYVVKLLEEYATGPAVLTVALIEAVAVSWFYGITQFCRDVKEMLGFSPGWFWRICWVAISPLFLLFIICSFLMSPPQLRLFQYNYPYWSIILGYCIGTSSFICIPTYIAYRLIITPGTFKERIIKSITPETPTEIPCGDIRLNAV

For `COc1ccc([C@@]23CCC(=O)C[C@@H]2N(C)CC3)cc1OC` [Mesembrine], in data set [1], the half-life in plasma result is listed as “less than 2 hours”. Regarding `CN1CC[C@]2(c3ccc4c(c3)OC(F)(F)O4)CCC(=O)C[C@H]12` (single isomer, unassigned) [Compound 232], in data set [2], the “IC50 ratio to (−) mesembrine” value is less than 5 and the IC50 is less than 50 nM. In the same order, the values of `CN1CC[C@@]2(c3ccc4c(c3)OC(F)(F)O4)CCC(=O)C[C@@H]12` (single isomer, unassigned) [Compound 233] are not below 100 and 500 to 1500 nM.

Source of the values: patent US20260234131A1, “THERAPEUTIC ALKALOID COMPOUNDS” (Sensorium Therapeutics, Inc., priority 2023, published 2026).
